How the values were obtained:
SAOS-2 = assay: Cytotoxicity against human SAOS-2 cells harbouring p53 R175H mutant incubated for 3 days by MTT assay; assay type: functional, cell-based; details: SAOS-2, 72 h
[1] = Reduction in p53 R175H mutant protein level in human SAOS-2 cells assessed as ratio of test compound fluorescence to control fluorescence at 2 uM measured after 2 hrs by Hoechst 33342 staining based immunofluorescence assay; assay type: functional

| Compound | IC50 (SAOS-2) [µM] | Ratio [1] |
| --- | --- | --- |
| C/C=C/C=C/C=C/C1=C2C(=O)O[C@@H](C)C[C@@H](O)C[C@@H](O)[C@H]3C(=O)C[C@@H](O)[C@H](O1)[C@H]23 | 12 | – |
| C/C=C/C=C/C=C/C1=C2C(=O)O[C@@H](C)C[C@@H](O)C[C@@H](O)[C@@H]3C(=O)C=C[C@H](O1)[C@H]23 | 0.35 | 0.4 |
| C/C=C/C=C\C=C\C1=C2C(=O)O[C@@H](C)CCCC[C@@H]3C(=O)C=C[C@H](O1)[C@H]23 | 0.36 | 0.57 |
| C/C=C/C=C/C=C/C1=C2C(=O)O[C@@H](C)C[C@@H](O)C[C@@H](O)[C@@H]3C(=O)C[C@@H](O)[C@H](O1)[C@H]23 | 21 | – |
